In patent US20240287047A1, “PESTICIDALLY ACTIVE DIAZINE-AMIDE COMPOUNDS” (SYNGENTA CROP PROTECTION AG, priority 2021, published 2024):

Assays:
Assay type in all cases: in vivo
Diabrotica balteata = experiment: Example B2: Diabrotica balteata (corn root worm), maize sprouts, L2 larvae; settings: for percent control (mortality or growth inhibition) at 200 ppm: Diabrotica balteata, 96 h, application rate of 200 ppm, 4 days after infestation, read-out: control in at least one of the two categories (mortality or growth inhibition); for mortality at 50 ppm: Concentration 50 ppm, Diabrotica balteata (Example B32)
Description: Maize sprouts placed onto an agar layer in 24-well microtiter plates were treated with aqueous test solutions prepared from 10,000 ppm DMSO stock solutions by spraying. After drying, the plates were infested with L2 larvae (6 to 10 per well). The samples were assessed for mortality and growth inhibition in comparison to untreated samples 4 days after infestation.

Chilo suppressalis = experiment: Example B1: Chilo suppressalis (striped rice stemborer), artificial diet, L2 larvae; settings: 144 h, application rate of 200 ppm, 6 days after infestation, read-out: control in at least one of the three categories (mortality, anti-feedant effect, or growth inhibition)
Description: 24-well microtiter plates with artificial diet were treated with aqueous test solutions prepared from 10,000 ppm DMSO stock solutions by pipetting. After drying, the plates were infested with L2 larvae (6-8 per well). The samples were assessed for mortality, anti-feeding effect, and growth inhibition in comparison to untreated samples 6 days after infestation. Control of Chilo suppressalis by a test sample is given when at least one of the categories mortality, anti-feedant effect, and growth inhibition is higher than the untreated sample.

Plutella xylostella = experiment: Example B4: Plutella xylostella (diamond back moth), artificial diet, eggs; settings: for percent control (mortality or growth inhibition) at 200 ppm: Plutella xylostella, 192 h, application rate of 200 ppm, 8 days after infestation, read-out: control in at least one of the two categories (mortality or growth inhibition); for mortality at 50 ppm: Concentration 50 ppm, Plutella xylostella (Example B4)
Description: 24-well microtiter plates with artificial diet were treated with aqueous test solutions prepared from 10′000 ppm DMSO stock solutions by pipetting. After drying, Plutella eggs were pipetted through a plastic stencil onto a gel blotting paper and the plate was closed with it. The samples were assessed for mortality and growth inhibition in comparison to untreated samples 8 days after infestation.

Spodoptera littoralis = experiment: Example B5: Spodoptera littoralis (Egyptian cotton leaf worm), cotton leaf discs, L1 larvae; settings: foliar, 72 h, application rate of 200 ppm, 3 days after infestation, read-out: control in at least one of the three categories (mortality, anti-feedant effect, or growth inhibition)
Description: Cotton leaf discs were placed onto agar in 24-well microtiter plates and sprayed with aqueous test solutions prepared from 10,000 ppm DMSO stock solutions. After drying the leaf discs were infested with five L1 larvae. The samples were assessed for mortality, anti-feeding effect, and growth inhibition in comparison to untreated samples 3 days after infestation. Control of Spodoptera littoralis by a test sample is given when at least one of the categories mortality, anti-feedant effect, and growth inhibition is higher than the untreated sample.

Compound | percent control (mortality or growth inhibition) at 200 ppm (Diabrotica balteata) [%] | percent control (mortality, anti-feedant effect or growth inhibition) at 200 ppm (Chilo suppressalis) [%] | percent control (mortality or growth inhibition) at 200 ppm (Plutella xylostella) [%] | percent control (mortality, anti-feedant effect or growth inhibition) at 200 ppm (Spodoptera littoralis) [%] | mortality at 50 ppm (Diabrotica balteata) [%] | mortality at 50 ppm (Plutella xylostella) [%]
CC(NC(=O)c1cc(I)cc(C(F)(F)F)c1)c1nccnc1-c1cnc(Cl)cn1 (centres unmarked) [Compound P34, N-[1-[3-(5-chloropyrazin-2-yl)pyrazin-2-yl]ethyl]-3-iodo-5-(trifluoromethyl)benzamide] | ≥ 80 | ≥ 80 | ≥ 80 | ≥ 80 |  | 
CC(NC(=O)c1cc(Cl)cc(I)c1)c1nccnc1-c1cnccn1 (centres unmarked) [Compound P13, 3-chloro-5-iodo-N-[1-(3-pyrazin-2-ylpyrazin-2-yl)ethyl]benzamide] | ≥ 80 | ≥ 80 | ≥ 80 | ≥ 80 |  | 
CC(NC(=O)c1cc(Cl)cc(Cl)c1)c1nccnc1-c1cnccn1 (centres unmarked) [Compound P8, 3,5-dichloro-N-[1-(3-pyrazin-2-ylpyrazin-2-yl)ethyl]benzamide] | ≥ 80 | ≥ 80 | ≥ 80 | ≥ 80 |  | 
CC(c1nccnc1-c1cnccn1)N(C)C(=O)c1cc(Cl)nc(C2(C#N)CC2)c1 (centres unmarked) [Compound P29, 2-chloro-6-(1-cyanocyclopropyl)-N-methyl-N-[1-(3-pyrazin-2-ylpyrazin-2-yl)ethyl]pyridine-4-carboxamide] | ≥ 80 | ≥ 80 | ≥ 80 | ≥ 80 |  | 
CC(NC(=O)c1cc(I)cc(C(F)(F)F)c1)c1nccnc1-c1cnccn1 (centres unmarked) [Compound P23, 3-iodo-N-[1-(3-pyrazin-2-ylpyrazin-2-yl)ethyl]-5-(trifluoromethyl)benzamide] | ≥ 80 |  | ≥ 80 | ≥ 80 |  | 
CC(NC(=O)c1cc(Br)cc(I)c1)c1nccnc1-c1cnccn1 (centres unmarked) [Compound P24, 3-bromo-5-iodo-N-[1-(3-pyrazin-2-ylpyrazin-2-yl)ethyl]benzamide] | ≥ 80 | ≥ 80 | ≥ 80 | ≥ 80 |  | 
C[C@@H](c1nccnc1-c1cnccn1)N(C)C(=O)c1cc(I)cc(I)c1 [Compound E10, 3,5-diiodo-N-methyl-N-[(1S)-1-(3-pyrazin-2-ylpyrazin-2-yl)ethyl]benzamide] | ≥ 80 |  |  | ≥ 80 |  | 
C[C@@H](c1nccnc1-c1cnccn1)N(C)C(=O)c1cc(I)cc(C(F)(F)F)c1 [Compound E9, 3-iodo-N-methyl-N-[(1S)-1-(3-pyrazin-2-ylpyrazin-2-yl)ethyl]-5-(trifluoromethyl)benzamide] | ≥ 80 |  |  | ≥ 80 |  | 
CC(NC(=O)c1cc(Cl)cc(S(=O)(=O)C(F)(F)F)c1)c1nccnc1-c1cnccn1 (centres unmarked) [Compound P33, 3-chloro-N-[1-(3-pyrazin-2-ylpyrazin-2-yl)ethyl]-5-(trifluoromethylsulfonyl)benzamide] |  | ≥ 80 | ≥ 80 |  |  | 
CC(NC(=O)c1cc(Cl)cc(SC(F)(F)F)c1)c1nccnc1-c1cnccn1 (centres unmarked) [Compound P28, 3-chloro-N-[1-(3-pyrazin-2-ylpyrazin-2-yl)ethyl]-5-(trifluoromethylsulfanyl)benzamide] | ≥ 80 |  | ≥ 80 | ≥ 80 |  | 
CC(NC(=O)c1cc(C(F)(F)F)cc(S(C)(=O)=O)c1)c1nccnc1-c1cnc(C#N)cn1 (centres unmarked) [Compound P39, N-[1-[3-(5-cyanopyrazin-2-yl)pyrazin-2-yl]ethyl]-3-methylsulfonyl-5-(trifluoromethyl)benzamide] |  | ≥ 80 | ≥ 80 | ≥ 80 |  | 
CC(NC(=O)c1cc(C(F)F)cc(C(F)(F)F)c1)c1nccnc1-c1ncccn1 (centres unmarked) [P22 of WO 2020/070049, reference compound] |  |  |  |  | 80 | 
CC(NC(=O)c1cc(Cl)cc(C(F)(F)F)c1)c1nccnc1-c1ccccn1 (centres unmarked) [Example 1 of WO 2021/068179, reference compound] |  |  |  |  |  | 0
CC(c1nccnc1-c1cnccn1)N(C)C(=O)c1cc(Cl)cc(C(F)(F)F)c1 (centres unmarked) [Compound P30, 3-chloro-N-methyl-N-[1-(3-pyrazin-2-ylpyrazin-2-yl)ethyl]-5-(trifluoromethyl)benzamide] | ≥ 80 | ≥ 80 | ≥ 80 |  |  | 
CC(NC(=O)c1cc(C(F)(F)F)cc(S(=O)(=O)C(F)(F)F)c1)c1nccnc1-c1cnccn1 (centres unmarked) [Compound P22, N-[1-(3-pyrazin-2-ylpyrazin-2-yl)ethyl]-3-(trifluoromethyl)-5-(trifluoromethylsulfonyl)benzamide] |  | ≥ 80 | ≥ 80 |  |  | 
CC(NC(=O)c1cc(Br)cc(Br)c1)c1nccnc1-c1cnccn1 (centres unmarked) [Compound P15, 3,5-dibromo-N-[1-(3-pyrazin-2-ylpyrazin-2-yl)ethyl]benzamide] | ≥ 80 |  | ≥ 80 |  |  | 
CC(NC(=O)c1cc(C2CC2)cc(C(F)(F)F)c1)c1nccnc1-c1ccccn1 (centres unmarked) [P33 of WO 2020/201398, reference compound] |  |  |  |  |  | 50
CC(NC(=O)c1cc(Cl)cc(OC(F)(F)F)c1)c1nccnc1-c1cnccn1 (centres unmarked) [Compound P9, 3-chloro-N-[1-(3-pyrazin-2-ylpyrazin-2-yl)ethyl]-5-(trifluoromethoxy)benzamide] | ≥ 80 | ≥ 80 | ≥ 80 |  |  | 
C[C@@H](c1nccnc1-c1cnccn1)N(C)C(=O)c1cc(C(F)F)cc(C(F)(F)F)c1 [Compound E13, 3-(difluoromethyl)-N-methyl-N-[(1S)-1-(3-pyrazin-2-ylpyrazin-2-yl)ethyl]-5-(trifluoromethyl)benzamide] | ≥ 80 |  |  | ≥ 80 |  | 
CC(NC(=O)c1cc(Br)cc(Br)c1)c1nccnc1-c1cnc(Cl)cn1 (centres unmarked) [Compound P36, 3,5-dibromo-N-[1-[3-(5-chloropyrazin-2-yl)pyrazin-2-yl]ethyl]benzamide] | ≥ 80 |  | ≥ 80 | ≥ 80 |  | 
CC(NC(=O)c1cc(Cl)cc(C(F)(F)F)c1)c1nccnc1-c1cnccn1 (centres unmarked) [Compound P6, 3-chloro-N-[1-(3-pyrazin-2-ylpyrazin-2-yl)ethyl]-5-(trifluoromethyl)benzamide] |  | ≥ 80 | ≥ 80 | ≥ 80 |  | 100
CC(NC(=O)c1cc(C(F)(F)F)cc(C2(C#N)CC2)c1)c1nccnc1-c1ncccn1 (centres unmarked) [P25 of WO 2020/201398, reference compound] |  |  |  |  | 50 | 
C[C@H](NC(=O)c1cc(Br)cc(Br)c1)c1nccnc1-c1cnccn1 [Compound E6, 3,5-dibromo-N-[(1S)-1-(3-pyrazin-2-ylpyrazin-2-yl)ethyl]benzamide] | ≥ 80 |  | ≥ 80 | ≥ 80 |  | 
C[C@H](NC(=O)c1cc(I)cc(I)c1)c1nccnc1-c1cnccn1 [Compound E5, 3,5-diiodo-N-[(1S)-1-(3-pyrazin-2-ylpyrazin-2-yl)ethyl]benzamide] | ≥ 80 |  | ≥ 80 | ≥ 80 |  | 
CC(NC(=O)c1cc(C2CC2)cc(C(F)(F)F)c1)c1nccnc1-c1cnccn1 (centres unmarked) [Compound P19, 3-cyclopropyl-N-[1-(3-pyrazin-2-ylpyrazin-2-yl)ethyl]-5-(trifluoromethyl)benzamide] | ≥ 80 | ≥ 80 | ≥ 80 |  |  | 100
